These results are taken from patent publication US20210038732A1, “ANTICANCER MICRORNA AND LIPID FORMULATIONS THEREOF” (INTERNA TECHNOLOGIES B.V., priority 2018, published 2021).

Series [1] deals with orthotopic human Hep3b hepatocellular carcinoma tumors. The experiment in a line: Tumor growth inhibition, orthotopic Hep3b model, AFP levels and tumor weights (Example 4.3). The series is classed as in vivo, mice. To be noted: formulated in diamino lipid nanoparticles, iv. Here is the method:
Seven to 8 weeks old female SCID/Beige mice (Shanghai Lingchang Bio-Technology Co. Ltd, Shanghai, China) were orthotopically implanted with a single 2×2×2 mm piece of a subq grown Hep3b tumor into the left liver lobe. Mice were randomized based on day 21 AFP levels. At the time of randomization, the AFP levels (ng/ml plasma) ranged between 1019 and 19779 ng/ml (median 5203, IQR=2690-9498). Treatments started on day 22 and continued for three weeks (see Table 8 for dosing scheme). AFP was measured once a week (4 times in total), and BW was measured twice a week. At the end of the study tumor weights were also determined. QDx3, QDx5=one injection per day for three or five consecutive days; BIW=twice a week; BID=twice daily; po=per oral.

A further series relates to A2058. The experiment in a line: Caspase 3/7 apoptosis assay. The series is classed as cell-based, human. To be noted: 10 nM, normalized to mock. The method, then:
(§1) Depending on cancer cell type 3000-6000 cells were seeded in a 96 well plate. After cells attached, they were transfected with different concentrations of miRNA-193a and apoptosis induction was measured at different time points. This assay was performed using Promega kit. 100 uL of caspase reagent was added to 100 uL of media in each well in 96-well plate and incubated for 2 hours in the dark at room temperature. The luminescent signal was read on a luminescent plate reader.
(§2) Different biological effects of miRNA-193a-3p have been tested in various cancer cell lines (see Table 13). For this, various cells were treated with miRNA-193a at different concentrations (1, 3, 10 nM). For all experiments controls (untreated, mock and scrambled) were measured. All assays were performed at 24h, 48h and 72h time points. Data shown in Table 13 are the results for miRNA-193a at 10 nM concentration at indicated time points. All the results have been quantified and normalized to the mock control.
(§3) miRNA-193a treatment in various cancer cell lines decreased cell viability over time as measured by either an MTS assay or by cell count. It enhanced apoptosis induction over time as measured by a caspase 3/7 apoptosis assay. […] It is of note that due to intrinsic characteristics and gene mutation status of each cell line, performing one method to detect apoptosis is not always ideal for all cell lines.

The next series deals with HeP3B, SNU449. The experiment in a line: Caspase 3/7 apoptosis assay. It counts as cell-based, human. To be noted: 10 nM, normalized to mock. The method, then: as §1, §2, §3
Another series has as its system Huh7. The experiment in a line: Caspase 3/7 apoptosis assay. To be noted: 10 nM, normalized to mock. It counts as cell-based, human. Here is the method: as §1, §2, §3
Series [2] has as its system A549, H460. The experiment in a line: Caspase 3/7 apoptosis assay. As to conditions: 10 nM, normalized to mock. It counts as cell-based, human. Here is the method: as §1, §2, §3
For series [3], the system named is A549, H460. The experiment in a line: Cell cycle arrest profile (nuclei imaging or flow cytometry). It counts as cell-based, human. As to conditions: 10 nM. The method, then:
Depending on cancer cell type 3000-6000 cells were seeded in a 96 well plate. After cells attached, they were transfected with different concentrations of miRNA-193a and cell cycle profile was measured at different time points. At selected time points media was aspirated from wells and DNA staining solution (Hoescht 33342/Saponin/PFA) was added to each well and incubated for 2 hours at 37° C. Then, cell images were taken using Thermo Celllnsite in which nuclei were specified and nuclei intensity were measured. Nuclei intensity was analyzed using program R to determine the different phases of the cell cycle (G0/G1, S, G2/M) based on the DNA content.
To specifically detect the cells that are undergoing apoptosis, FITC Annexin V apoptosis detection kit (BD pharmingen) was used. […] After cells attached, they were transfected with different concentrations of miRNA-193a and apoptosis assay was measured at different time points following the manufacturer's protocol. With this assay we have detected the percentage of apoptotic cells indicating the SubG1 phase of the cell cycle.
Different biological effects of miRNA-193a-3p have been tested in various cancer cell lines (see Table 13). […] For all experiments controls (untreated, mock and scrambled) were measured. […] All the results have been quantified and normalized to the mock control. […]
In general terms: In flow cytometry, cells or beads pass a laser one at a time.

In series [4] the test system is 4T1 triple negative breast cancer tumors. The experiment in a line: Primary tumor regrowth and survival after 4T1 tumor resection (Example 4.4). The series is classed as in vivo, mice. The method, then:
Six to eight weeks old female BALB/c mice (Shanghai Lingchang Bio-Technology Co. Ltd, Shanghai, China) were injected with 3×10^5 4T1 mouse tumor cells in PBS (0.1 mL/mouse) into the mammary fat pad. At the time of randomization, the TVs ranged between 69.9 and 173.9 mm3 (median 105.7, IQR=100.7-125.4). Body weights and TVs (caliper measurements) were determined 2-3 times/week. After randomization (day 9 after tumor inoculation) mice received different treatments under different dosing regimen (see Table 9 for dosing scheme). For all groups, 4 mice are sacrificed 48h after the 2nd miRNA-193a injection in the first week and in the 2nd week. Primary tumors were surgically removed from the mammary fat pad on day 20 after inoculation. After a recovery period of 3 days, treatment was resumed for 6 more weeks until day 63. Re-growth of (distant) tumors was monitored in addition to BW, and mice were sacrificed if end-points were met.

Turning to “miRNA-193a: duplex of the miRNA-193a-3p of SEQ ID NO: 218 (mimic, sense) with antisense strand SEQ ID NO: 219; naked in vitro, formulated in vivo (sense UGGGACUUUGUAGGCCAGUUTT; antisense AACUGGCCUACAAAGUCCCAGU; chemistry not given here; listed as Homo sapiens)”, in series [1], the “TGI effects (AFP levels, tumor weights)” value is given as “significant TGI effects”. Also, the “Apoptosis (48/72 h)” value with A2058 is listed as “↑↑ (Induction > 2x)”; in the series with HeP3B, SNU449, “↑ (Induction < 2x)”; with Huh7, “↑ (Induction < 2x)”; in the series with A549, H460 [2], “↑↑ (Induction > 2x)”. Besides, the “Cell cycle arrest (72 h)” value in the series on A549, H460 [3] was “SubG1”. Besides, in series [4] (formulated in diamino lipid nanoparticles, 10 mg/kg BIW iv), the “Tumor re-growth after tumor excision” value was “reduced tumor re-growth”. Further, in series [4] (formulated in diamino nanoparticles, 10 mg/kg BIW iv), the Mouse survival result was “positively affected mouse survival”. For the same substance, the “Mice that showed a tumor re-growth after primary tumor removal” value in series [4] (primary tumor removal day 20, 10 mg/kg twice weekly for further 6 weeks) is listed as 1 out of 10.
